Consider 10 compounds from patent US20170015654A1, “PYRIDAZINE COMPOUND” (TAKEDA PHARMACEUTICAL COMPANY LIMITED, priority 2014, published 2017).

The target in experiment [1] is T1, human SCD1 (Homo sapiens, UniProt O00767).
T1 construct: made in house; host or cells: High Five insect cells (baculovirus, pFastBac1/hSCD1); membrane fraction
T1 sequence (O00767 1-359): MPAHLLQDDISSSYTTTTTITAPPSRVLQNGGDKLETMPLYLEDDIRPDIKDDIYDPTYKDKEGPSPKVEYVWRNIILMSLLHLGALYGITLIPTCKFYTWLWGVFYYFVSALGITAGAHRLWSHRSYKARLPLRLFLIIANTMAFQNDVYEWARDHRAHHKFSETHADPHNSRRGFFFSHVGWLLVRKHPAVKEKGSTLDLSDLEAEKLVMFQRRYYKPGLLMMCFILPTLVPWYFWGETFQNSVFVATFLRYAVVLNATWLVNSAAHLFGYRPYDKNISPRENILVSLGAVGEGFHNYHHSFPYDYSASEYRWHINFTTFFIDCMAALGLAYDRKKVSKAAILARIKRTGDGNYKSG
Put plainly: Measurement of human SCD1 binding activity (inhibition of binding of radiolabeled compound Z). The note with it: human SCD1-expressing membrane fraction, compound Z radioligand; for inhibition at 1 µM: 1 μM compound, read-out: Rate of inhibition of SCD1 binding (%) at compound concentration of 1 μM. As to the method:
Measurement of Human SCD1 Binding Activity Using (5-(6-(1′H-spiro[1-benzofuran-3,3′-pyrrolidin]-1′-yl)pyridazin-3-yl)-1,2,4-oxadiazol-3-yl) [^3H2]methanol
The SCD1 binding activity of the compound of the present invention was measured as the activity of inhibiting the binding of (5-(6-(1′H-spiro[1-benzofuran-3,3′-pyrrolidin]-1′-yl)pyridazin-3-yl)-1,2,4-oxadiazol-3-yl)[^3H2]methanol (radiolabeled form of the compound disclosed as a SCD inhibitor in Example 157 of International Publication No. WO2008/096746; in the present specification, also referred to as compound Z) to SCD1.
Specifically, first, Human liver cDNA library (Takara Bio Inc.) was cloned as a template by PCR using KOD-Plus-(Toyobo Co., Ltd.) DNA polymerase. The primers used were 5′-[…]-3′ and 5′-[…]-3′. The amplification fragment was temporarily transferred to a pCR Blunt II-TOPO vector using Zero Blunt PCR Cloning Kit (Life Technologies, Inc.) to obtain pCR Blunt II-TOPO/hSCD1. A fragment obtained by the cleavage of this pCR Blunt II-TOPO/hSCD1 with BamHI and NotI was transferred to pFastBac1 (Life Technologies, Inc.) to construct a recombinant plasmid pFastBac1/hSCD1 for hSCD1 insect cell expression systems.
Baculovirus was prepared using the pFastBac1/hSCD1 plasmid according to the protocol of Bac-to-Bac Baculovirus Expression System (Life Technologies, Inc.).
The insect cells for use in expression were High Five cells (Life Technologies, Inc.) subcultured in a PSFM-J1 medium (Wako Pure Chemical Industries, Ltd.) containing 5% FBS, 10 U/L heparin (Sigma-Aldrich Corp.) and 50 μg/mL gentamicin.
The High Five cells were inoculated at 0.8×10^6 cells/mL and cultured until the following day. When the cell density reached 2.0×10^6 cells/mL, Ammonium Iron(III) Sulfate 12-Water (Wako Pure Chemical Industries, Ltd.) was added thereto at a final concentration of 10 μM. The cells were further infected with the baculovirus and cultured for 3 days.
After the completion of the culture, the culture solution was centrifuged (4° C., 4,000 rpm, […]) and frozen at −80° C. to obtain hSCD1-expressing insect cells. Next, the frozen hSCD1-expressing insect cells were suspended in buffer A (50 mM Tris-HCl (pH 7.5) containing 250 mM sucrose and cOmplete Protease Inhibitor Cocktail Tablets (F. Hoffmann-La Roche, Ltd.)), and the cells were disrupted (4° C., 20,000 rpm, 20 sec×2) using a POLYTORON homogenizer (Central Scientific Commerce, Inc.).
This cell lysate was centrifuged (4° C., 850×g, […]), and the supernatant was further ultracentrifuged (4° C., 186,000×g, 60 min). The supernatant was discarded, and buffer A was added to the precipitate. The resultant was suspended using POLYTRON (4° C., 10,000 rpm, 10 sec×2) and passed through a 40-μm cell strainer to prepare a human SCD1-expressing membrane fraction (hereinafter, also simply referred to as human SCD1). The protein concentration was measured using BCA Protein Assay Kit (Thermo Fisher Scientific, Inc.) with BSA used as standards.
The obtained primary dilution was diluted 250-fold by the addition of an assay buffer (10 mM Tris-HCl, pH 7.5, 100 mM KCl, 10 mM NaF, 3 mM MgCl2, 0.005% Tween 20, 1 mM GSH) to obtain a secondary dilution. The human SCD1 diluted using an assay buffer was dispensed at 100 μL/well (containing 0.2 μg of the protein) to a polypropylene 96-well plate, and then, the secondary dilution of the compound was added thereto at 50 μL/well. Further, a solution of 12 nM compound Z diluted with an assay buffer was added thereto at 50 μL/well, and the plate was left standing at room temperature for 2 hours. Then, the contents in each well were transferred to each well of UniFilter-96 GF/C PEI coated plate (PerkinElmer, Inc.) wetted with a washing buffer, followed by washing five times with a washing buffer (10 mM Tris-HCl, pH 7.5). After drying of the filter plate, Microscint-O (PerkinElmer, Inc.) was added thereto at 25 μL/well, and the obtained radioactivity was measured using TopCount (PerkinElmer, Inc.). […]

Experiment [2] concerns human large intestine cancer cell line HCT116. As to the kind of experiment: Antitumor effect on human large intestine cancer cell line HCT116 cancer-bearing mice. Format: in vivo, mouse. The note with it: 10 mg/kg, 2 doses per day, orally for 14 days; HCT116 cancer-bearing BALB/c nude mice; tumor growth vs control group. As to the method: The compound of the present invention was evaluated for its antitumor effect on human large intestine cancer cell line HCT116 cancer-bearing mice by the following method.
The human large intestine cancer cell line HCT116 (purchased from ATCC (American Type Culture Collection)) was transplanted to each 6-week-old BALB/c female nude mouse (BALB/cA Jcl nu/nu: CLEA Japan Inc.) by the subcutaneous injection of 1.0×10^6 cells. After the transplantation, successfully engrafted tumor was observed, and the tumor size was measured 10 to 14 days after the transplantation. The tumor volume was calculated according to the following expression:
Tumor volume=Major axis×Minor axis×Minor axis×(½)
Individuals in which the volume of the engrafted tumor reached approximately 150 mm^3 were selected and used in the experiment as groups each involving 5 to 8 individuals. Each test compound was suspended in a 0.5% methylcellulose solution and orally administered to each individual for 14 days using the dose and the number of doses shown in the table below. Finally, in order to measure drug effects, the tumor volume was calculated from the tumor sizes at the day before the start of the administration and at the final day of the administration, and tumor growth in the test compound administration group compared with a control administration group given only a 0.5% methylcellulose solution was calculated as T/C according to the following expression:
T/C (%)=(Tumor volume after the completion of the administration of the test compound administration group−Tumor volume at the day before the start of the administration of the test compound administration group)/(Tumor volume after the completion of the administration of the control administration group−Tumor volume at the day before the start of the administration of the control administration group)×100

Turning to `N#CC1(c2ccc(S(F)(F)(F)(F)F)cc2)CCN(c2ccc(-c3nnc(CO)o3)nn2)CC1` [Example 58, 1-(6-(5-(Hydroxymethyl)-1,3,4-oxadiazol-2-yl)pyridazin-3-yl)-4-(4-(pentafluorosulfanyl)phenyl)piperidine-4-carbonitrile], the inhibition at 1 µM in experiment [1] is 89%. Besides, the “T/C (%)” value in experiment [2] is reported as 86.2%.

`OCc1noc(-c2ccc(N3CCC(c4ccc(C(F)(F)F)cc4)(C(F)(F)F)CC3)nn2)n1` [Example 82, (5-(6-(4-(Trifluoromethyl)-4-(4-(trifluoromethyl)phenyl)piperidin-1-yl)pyridazin-3-yl)-1,2,4-oxadiazol-3-yl)methanol]: in experiment [1], the inhibition at 1 µM amounted to 99%.

With `OCc1nnc(-c2ccc(N3CCC(c4ccc(C(F)(F)F)cc4)(C(F)(F)F)CC3)nn2)o1` [Example 84, (5-(6-(4-(Trifluoromethyl)-4-(4-(trifluoromethyl)phenyl)piperidin-1-yl)pyridazin-3-yl)-1,3,4-oxadiazol-2-yl)methanol], in experiment [1], the inhibition at 1 µM stood at 99%. The “T/C (%)” value in experiment [2] is reported as 58.4%.

With `COC1(c2ccc(S(F)(F)(F)(F)F)cc2)CCN(c2ccc(-c3nnc(CO)o3)nn2)CC1` [Example 93, (5-(6-(4-Methoxy-4-(4-(pentafluorosulfanyl)phenyl)piperidin-1-yl)pyridazin-3-yl)-1,3,4-oxadiazol-2-yl)methanol], in experiment [1], the inhibition at 1 µM amounted to 98%. Besides, the “T/C (%)” value in experiment [2] was 58.1%.

Regarding `N#CC1(c2ccc(S(F)(F)(F)(F)F)cc2)CCN(c2ccc(-c3nc(CO)ns3)nn2)CC1` [Example 108, 1-(6-(3-(Hydroxymethyl)-1,2,4-thiadiazol-5-yl)pyridazin-3-yl)-4-(4-(pentafluorosulfanyl)phenyl)piperidine-4-carbonitrile], the inhibition at 1 µM in experiment [1] was 99%.

`N#CC1(c2ccc(S(F)(F)(F)(F)F)cc2)CCN(c2ccc(-c3nnc(CO)s3)nn2)CC1` [Example 109, 1-(6-(5-(Hydroxymethyl)-1,3,4-thiadiazol-2-yl)pyridazin-3-yl)-4-(4-(pentafluorosulfanyl)phenyl)piperidine-4-carbonitrile]: the inhibition at 1 µM in experiment [1] was determined as 87%.

Consider `COC1(c2ccc(S(F)(F)(F)(F)F)cc2)CCN(c2ccc(-c3nc(CO)ns3)nn2)CC1` [Example 110, (5-(6-(4-Methoxy-4-(4-(pentafluorosulfanyl)phenyl)piperidin-1-yl)pyridazin-3-yl)-1,2,4-thiadiazol-3-yl)methanol], for which the inhibition at 1 µM in experiment [1] came out at 100%. For the same compound, in experiment [2], the “T/C (%)” value was 64.8%.

`COC1(c2ccc(S(F)(F)(F)(F)F)cc2)CCN(c2ccc(-c3nnc(CO)s3)nn2)CC1` [Example 111, (5-(6-(4-Methoxy-4-(4-(pentafluorosulfanyl)phenyl)piperidin-1-yl)pyridazin-3-yl)-1,3,4-thiadiazol-2-yl)methanol]: the inhibition at 0.1 µM in experiment [1] (0.1 μM compound, read-out: Rate of inhibition of SCD1 binding at compound concentration of 0.1 μM) amounted to 93%.

With `OCc1nsc(-c2ccc(N3CCC(c4ccc(C(F)(F)F)cc4)(C(F)(F)F)CC3)nn2)n1` [Example 112, (5-(6-(4-(Trifluoromethyl)-4-(4-(trifluoromethyl)phenyl)piperidin-1-yl)pyridazin-3-yl)-1,2,4-thiadiazol-3-yl)methanol], the inhibition at 1 µM in experiment [1] worked out at 99%. Besides, in experiment [2], the “T/C (%)” value worked out at 53.7%.

Consider `OCc1nnc(-c2ccc(N3CCC(c4ccc(C(F)(F)F)cc4)(C(F)(F)F)CC3)nn2)s1` [Example 113, (5-(6-(4-(Trifluoromethyl)-4-(4-(trifluoromethyl)phenyl)piperidin-1-yl)pyridazin-3-yl)-1,3,4-thiadiazol-2-yl)methanol], for which the inhibition at 1 µM in experiment [1] was determined as 100%. The “T/C (%)” value in experiment [2] came to 67.8%.
